The experiment concerns AML cell lines. Description: Methylscan proteomic evaluation of arginine methylation. To be noted: AML cell lines treated with the tool compound vs DMSO. The experiment is classed as cell-based. The source says:
FIG. 3: Methylscan evaluation of cell lines treated with Compound D. Percent of proteins with methylation changes (independent of directionality of change) are categorized by functional group as indicated.
To identify putative PRMT1 substrates, a proteomic approach (Methylscan, Cell Signaling Technology) was utilized to identify proteins with changes in arginine methylation states in response to a tool PRMT1 inhibitor, Compound D. Protein fragments from Compound D- and DSMO-treated cell extracts were immunoprecipitated using methyl arginine specific antibodies (ADMA, MMA, SDMA), and peptides were identified by mass spectrometry.

For the compound `CNCCN(C)Cc1c[nH]nc1[C@H]1CC[C@@]2(CC1)CC(C)(C)CO2` [Compound D], the “proteins with changes in arginine methylation states (Methylscan)” value is “the majority of substrates identified were transcriptional regulators and RNA processing proteins”.
